Series [1] relates to lens elasticity. Put plainly: Pharmacological Test 1: effect of EV06 eye drops on lens elasticity (lens diameter change under cover glass). Type of series: in vivo, C57BL/6J mice. Particulars: 3 times per day for 15 to 17 days; for Lens elasticity improvement: 2.5 μL/eye, 8-month-old mice, vs vehicle control. The procedure: The effect of lipoic acid choline ester (EV06) on the lens elasticity was examined. The tests were conducted with reference to the methods described in InvestOphthalmol Vis Sci, 57, 2851-2863, 2016. EV06 is a compound represented by the following formula (2): A vehicle comprising 0.1% (w/v) of ethyl pyruvate, 0.269% (w/v) of sodium dihydrogenphosphate monohydrate (NaH2PO4H2O), 0.433% (w/v) of disodium hydrogenphosphate (Na2HPO4), 0.2% (w/v) of hydroxypropyl methylcellulose, and 0.5% (w/v) of NaCl was prepared. EV06 was sonicated with the addition of the vehicle to prepare a 5% (w/v) suspension. The resulting 5% (w/v) suspension was diluted with the vehicle to prepare a 1.5% (w/v) solution. Further, the resulting 1.5% (w/v) solution was diluted with the vehicle to prepare a 0.5% (w/v) solution. The total amount of each sample to be used in one day was prepared before use. 1) Each test sample (2.5 μL/eye) was instilled into the right eye of 8-month-old C57BL/6J mice with a Pipetman 3 times per day (around 9:00, 13:00 and 17:00) for 15 to 17 days. 2) After the final instillation, the mice were euthanized by carbon dioxide inhalation, and then the eyeballs were extracted and rinsed with Hank's balanced salt solution (HBSS). 3) The sclera near the optic nerve was cut with a razor, the lens was removed through the incision, and the removed lens was immersed in HESS. 4) The lens was placed on a glass slide, and an all-in-one fluorescence microscope BZ-9000 (Keyence) was used to capture an image of the lens (Image a). 5) Next, one cover glass (Corning^(registered trade mark) 22×22 mm Square) was placed on the lens, and an image in which the thickness of the lens changed due to the weight was similarly captured (Image b). 6) A change in the lens diameter was calculated from Equation 1 wherein the lens diameter of Image a is subtracted from the lens diameter of Image b, as described below. Then, the lens elasticity improvement of each sample group compared with the vehicle control group was calculated from Equation 2 described below. The mean of the vehicle control group was based on 6 eyes and the mean of each EV06 sample group was based on 12 eyes. Change in lens diameter=Lens diameter in Image b of each test sample−Lens diameter in Image a of each test sample (Equation 1) Lens elasticity improvement of each sample group=Mean change in lens diameter of each EV06 sample group−Mean change in lens diameter of Vehicle control group (Equation 2) (Results)

The test system of series [2] is lens elasticity. In words: Pharmacological Test 2: effect of sodium 4-phenylbutyrate eye drops on lens elasticity. The format is in vivo, C57BL/6J mice. To be noted: 3 times per day for 12 to 15 days; for Lens elasticity improvement: 2.5 μL/eye, 8-month-old mice, vs vehicle control. The procedure:
The effect of sodium 4-phenylbutyrate on the lens elasticity was examined. A vehicle comprising 0.1% (w/v) of ethyl pyruvate, 0.269% (w/v) of sodium dihydrogenphosphate monohydrate (NaH2PO4H2O), 0.433% (w/v) of disodium hydrogenphosphate (Na2HPO4), 0.2% (w/v) of hydroxypropyl methylcellulose, 0.5% (w/v) of NaCl was prepared. Sodium 4-phenylbutyrate was sonicated with the addition of the vehicle to prepare a 1.5% (w/v) solution. The resulting 1.5% (w/v) solution was diluted with the vehicle to prepare a 0.5% (w/v) solution. Further, the resulting 0.5% (w/v) solution was diluted with the vehicle to prepare a 0.15% (w/v) solution. The total amount of each sample to be used in one day was prepared before use. EV06 was sonicated with the addition of the vehicle to prepare a 1.5% (w/v) solution. The total amount of the sample to be used in one day was prepared before use. 1) Each test sample (2.5 μL/eye) was instilled into the right eye of 8-month-old C57BL/6J mice with a Pipetman 3 times per day (around 9:00, 13:00 and 17:00) for 12 to 15 days. 2) After the final instillation, the mice were euthanized by carbon dioxide inhalation, and then the eyeballs were extracted and rinsed with Hank's balanced salt solution (HBSS). 3) The sclera near the optic nerve was cut with a razor, the lens was removed through the incision, and the removed lens was immersed in HESS. 4) The lens was placed on a glass slide, and an all-in-one fluorescence microscope BZ-9000 (Keyence) was used to capture an image of the lens (Image a). 5) Next, one cover glass (Corning^(registered trade mark) 22×22 mm Square) was placed on the lens, and an image in which the thickness of the lens changed due to the weight was similarly captured (Image b). 6) A change in the lens diameter was calculated from Equation 1 wherein the lens diameter of Image a is subtracted from the lens diameter of Image b, as described below. Then, the lens elasticity improvement of each sample group compared with the vehicle control group was calculated from Equation 2 described below. The mean of the vehicle control group was based on 4 eyes, the mean of each sodium 4-phenylbutyrate sample group and the mean of the EV06 sample group were based on 9-10 eyes. Change in lens diameter=Lens diameter in Image b of each test sample−Lens diameter in Image a of each test sample (Equation 1) Lens elasticity improvement of each sample group=Mean change in lens diameter of each Test sample group−Mean change in lens diameter of Vehicle control group (Equation 2) (Results)

The subject of series [3] is lens elasticity. In words: Pharmacological Test 3: effect of once-daily instillation of sodium 4-phenylbutyrate for 2 weeks on lens elasticity. Type of series: in vivo, C57BL/6J mice. Particulars: for Lens elasticity improvement: 2.5 μL/eye, vs vehicle control. The procedure:
The effect of once-daily instillation of sodium 4-phenylbutyrate for 2 weeks on the lens elasticity was examined. A vehicle comprising 0.1% (w/v) of ethyl pyruvate, 0.269% (w/v) of sodium dihydrogenphosphate monohydrate (NaH2PO4H2O), 0.433% (w/v) of disodium hydrogenphosphate (Na2HPO4), 0.2% (w/v) of hydroxypropyl methylcellulose, and 0.5% (w/v) of NaCl was prepared. Sodium 4-phenylbutyrate was dissolved with the addition of the vehicle to prepare a 3.0% (w/v) solution. The resulting 3.0% (w/v) solution was diluted with the vehicle to prepare a 1.0% (w/v) solution. Further, the resulting 1.0% (w/v) solution was diluted with the vehicle to prepare a 0.3% (w/v) solution. The total amount of each sample to be used in one day was prepared before use. EV06 was sonicated with the addition of the vehicle to prepare a 1.5% (w/v) solution. The total amount of the sample to be used in one day was prepared before use. 1) Each test sample (2.5 μL/eye) was instilled into the right eye of 8-month-old C57BL/6J mice with a Pipetman once per day (QD; around 9:00) or 3 times per day (TID; around 9:00, 13:00 and 17:00) for 14 days. 2) After the final instillation, the mice were euthanized by carbon dioxide inhalation, and then the eyeballs were extracted and rinsed with Hank's balanced salt solution (HBSS). 3) The sclera near the optic nerve was cut with a razor, the lens was removed through the incision, and the removed lens was immersed in HBSS. 4) The lens was placed on a glass slide, and an all-in-one fluorescence microscope BZ-9000 (Keyence) was used to capture an image of the lens (Image a). 5) Next, one cover glass (Corning^(registered trade mark) 22×22 mm Square) was placed on the lens, and an image in which the thickness of the lens changed due to the weight was similarly captured (Image b). 6) A change in the lens diameter was calculated from Equation 1 wherein the lens diameter of Image a is subtracted from the lens diameter of Image b, as described below. Then, the lens elasticity improvement of each sample group compared with the vehicle control group was calculated from Equation 2 described below. The mean of the vehicle control group was based on 5 eyes. The mean of each sodium 4-phenylbutyrate sample group and the mean of each EV06 sample group were based on 9 to 10 eyes. Change in lens diameter=Lens diameter in Image b of each test sample−Lens diameter in Image a of each test sample (Equation 1) Lens elasticity improvement of each sample group=Mean change in lens diameter of each Test sample group−Mean change in lens diameter of Vehicle control group (Equation 2) (Results)

In series [4] the test system is anterior segment of the eye. In words: Ocular Irritation Test (McDonald-Shadduck method, lens observation, histopathology). The format is in vivo, Japanese White rabbits. The procedure: A vehicle (aqueous solution) comprising 0.1% (w/v) of ethyl pyruvate, 0.269% (w/v) of sodium dihydrogenphosphate monohydrate (NaH2PO4H2O), 0.433% (w/v) of disodium hydrogenphosphate (Na2HPO4), 0.2% (w/v) of hydroxypropyl methylcellulose, 0.5% (w/v) of NaCl was prepared.
0.3% (w/v), 1% (w/v), and 3% (w/v) sodium 4-phenylbutyrate ophthalmic liquids were prepared in the same manner as in the above pharmacological tests. These ophthalmic liquids and the vehicle were each instilled into the left eye of Japanese White rabbits at a dose of 50 μL/eye with pipette twice per day at a 6-hour interval for 2 weeks. One hour after the final instillation, ocular irritation of anterior segment of the eye was evaluated according to the McDonald-Shadduck method, and the lens was observed. The contralateral eye was […].
The ocular irritation of anterior segment of the eye was scored according to the following criteria:
+1: mild; +2: moderate; +3: severe.

Regarding `C[N+](C)(C)CCOC(=O)CCCC[C@@H]1CCSS1.[Cl-]` [EV06, lipoic acid choline ester], the Lens elasticity improvement was 28.8 μm in the series on lens elasticity [1] (0.5% (w/v) sample); 47.3 μm in the series with lens elasticity [1] (1.5% (w/v) sample); 48.7 μm in the series with lens elasticity [1] (5% (w/v) sample); 49.0 μm in the series on lens elasticity [2] (1.5% (w/v) sample); 47.9 μm in the series on lens elasticity [3] (1.5% (w/v) sample, 3 times per day (TID) for 14 days); 21.6 μm with lens elasticity [3] (1.5% (w/v) sample, once per day (QD) for 14 days). Also, the “Lens elasticity improving effect (in words)” value in the series with lens elasticity [1] (all of the 0.5%, 1.5%, and 5% groups) is listed as “increased lens diameter compared with the vehicle control group”.
For the molecule `O=C([O-])CCCc1ccccc1.[Na+]` [sodium 4-phenylbutyrate], the “Overall safety of ophthalmic liquids (in words)” value in series [4] (ophthalmic liquids, rabbit 2-week instillation) was “highly safe”. The “Histopathological examination of the eyes (in words)” value in series [4] (rabbit, in vivo) was “showed no abnormal findings”. Also, the “Observation of ocular irritation of anterior segment of the eye and lens observation (in words)” value in series [4] (rabbit, in vivo) is on record as “no abnormal findings were observed”. The Lens elasticity improvement is listed as 38.1 μm with lens elasticity [2] (0.15% (w/v) sample); 47.5 μm with lens elasticity [2] (0.5% (w/v) sample); 51.4 μm with lens elasticity [2] (1.5% (w/v) sample); 25.6 μm with lens elasticity [3] (0.3% (w/v) sample, once per day (QD) for 14 days); 30.6 μm with lens elasticity [3] (1.0% (w/v) sample, once per day (QD) for 14 days); 48.1 μm with lens elasticity [3] (3.0% (w/v) sample, once per day (QD) for 14 days). Also, the “Lens elasticity improving effect compared with EV06 at the same concentration” value with lens elasticity [2] (1.5% sample group) was “stronger than that of EV06”. Besides, in the series on lens elasticity [2] (all of the 0.15%, 0.5%, and 1.5% groups), the “Lens elasticity improving effect (in words)” value is given as “potent lens elasticity improving effect”. Besides, in the series on lens elasticity [3] (0.3%, 1% and 3% samples instilled once-daily for 14 days), the “Lens elasticity improvement (in words)” value was “potent lens elasticity improvement”. Besides, in the series on lens elasticity [3] (concentrations 1.0% and 3.0%, once-daily for 14 days), the “Lens elasticity improvement compared with 1.5% EV06” value is “more potent lens elasticity improvement compared with 1.5% EV06”.

For the origin of these results see patent US12290497B2, “Agent containing 4-phenylbutyrate, for preventing or treating presbyopia” (SANTEN PHARMACEUTICAL CO., LTD., priority 2018, dated 2025).
